Test results as given in ChEMBL document CHEMBL1201862, “PubChem BioAssay data set” (2004).
Calls of active or inactive are those of the source.

How the values were obtained:
Type in all cases: functional
[1] = molecular target: T1, Activin receptor type-1 (Homo sapiens, UniProt Q04771); test: Navigating the Kinome. Panel member name: ACVR1
T1 sequence (Q04771 whole entry): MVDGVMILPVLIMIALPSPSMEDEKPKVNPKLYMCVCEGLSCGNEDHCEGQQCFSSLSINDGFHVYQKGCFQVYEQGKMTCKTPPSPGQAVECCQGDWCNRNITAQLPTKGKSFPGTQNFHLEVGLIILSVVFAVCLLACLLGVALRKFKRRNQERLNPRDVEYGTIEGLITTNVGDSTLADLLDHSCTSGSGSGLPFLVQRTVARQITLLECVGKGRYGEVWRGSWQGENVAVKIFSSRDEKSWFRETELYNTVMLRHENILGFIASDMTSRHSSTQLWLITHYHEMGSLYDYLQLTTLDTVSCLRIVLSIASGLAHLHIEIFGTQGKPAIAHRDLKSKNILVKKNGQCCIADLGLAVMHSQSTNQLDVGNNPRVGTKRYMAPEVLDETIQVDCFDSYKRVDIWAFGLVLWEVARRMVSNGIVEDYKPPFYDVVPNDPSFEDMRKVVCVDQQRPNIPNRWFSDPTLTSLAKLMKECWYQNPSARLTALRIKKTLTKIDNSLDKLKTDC

[2] = molecular target: Tyrosine-protein kinase JAK2 (Homo sapiens, UniProt O60674);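 note: JAK2 tested as one member of a kinase panel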
[3] = molecular target: Death-associated protein kinase 3 (Homo sapiens, UniProt O43293);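 note: measured as one member of a kinome-wide profiling panel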
[4] = molecular target: Vascular endothelial growth factor receptor 2 (Homo sapiens, UniProt P35968)
[5] = molecular target: T2, Mitogen-activated protein kinase kinase kinase kinase 2 (Homo sapiens, UniProt Q12851);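 note: measured as one member of a kinome-wide kinase panel, with MAP4K2 as the panel entry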
T2 sequence (Q12851 whole entry): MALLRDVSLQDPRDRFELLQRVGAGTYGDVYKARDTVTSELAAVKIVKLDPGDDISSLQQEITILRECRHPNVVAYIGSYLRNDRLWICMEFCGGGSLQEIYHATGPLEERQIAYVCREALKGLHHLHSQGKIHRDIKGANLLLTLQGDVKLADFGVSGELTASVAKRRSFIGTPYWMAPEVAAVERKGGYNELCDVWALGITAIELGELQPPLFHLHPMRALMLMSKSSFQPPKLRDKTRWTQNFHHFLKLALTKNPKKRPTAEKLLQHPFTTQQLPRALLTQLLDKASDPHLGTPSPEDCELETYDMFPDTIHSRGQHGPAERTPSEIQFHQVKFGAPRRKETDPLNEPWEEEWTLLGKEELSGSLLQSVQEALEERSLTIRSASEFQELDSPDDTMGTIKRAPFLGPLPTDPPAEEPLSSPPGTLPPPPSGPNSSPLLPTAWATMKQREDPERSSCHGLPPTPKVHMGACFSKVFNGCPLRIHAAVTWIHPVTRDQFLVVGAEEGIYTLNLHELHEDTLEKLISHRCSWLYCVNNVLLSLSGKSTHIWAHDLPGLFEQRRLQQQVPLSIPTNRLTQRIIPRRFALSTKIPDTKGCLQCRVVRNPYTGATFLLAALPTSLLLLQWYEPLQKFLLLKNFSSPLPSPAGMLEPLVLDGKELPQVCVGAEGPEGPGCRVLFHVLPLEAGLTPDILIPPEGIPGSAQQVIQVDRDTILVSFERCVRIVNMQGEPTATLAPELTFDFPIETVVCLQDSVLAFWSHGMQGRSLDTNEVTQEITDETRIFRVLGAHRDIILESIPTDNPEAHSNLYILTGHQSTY

[6] = molecular target: T3, Inhibitor of nuclear factor kappa-B kinase subunit epsilon (Homo sapiens, UniProt Q14164); test: Navigating the Kinome. Panel member name: IKBKE
T3 sequence (Q14164 whole entry): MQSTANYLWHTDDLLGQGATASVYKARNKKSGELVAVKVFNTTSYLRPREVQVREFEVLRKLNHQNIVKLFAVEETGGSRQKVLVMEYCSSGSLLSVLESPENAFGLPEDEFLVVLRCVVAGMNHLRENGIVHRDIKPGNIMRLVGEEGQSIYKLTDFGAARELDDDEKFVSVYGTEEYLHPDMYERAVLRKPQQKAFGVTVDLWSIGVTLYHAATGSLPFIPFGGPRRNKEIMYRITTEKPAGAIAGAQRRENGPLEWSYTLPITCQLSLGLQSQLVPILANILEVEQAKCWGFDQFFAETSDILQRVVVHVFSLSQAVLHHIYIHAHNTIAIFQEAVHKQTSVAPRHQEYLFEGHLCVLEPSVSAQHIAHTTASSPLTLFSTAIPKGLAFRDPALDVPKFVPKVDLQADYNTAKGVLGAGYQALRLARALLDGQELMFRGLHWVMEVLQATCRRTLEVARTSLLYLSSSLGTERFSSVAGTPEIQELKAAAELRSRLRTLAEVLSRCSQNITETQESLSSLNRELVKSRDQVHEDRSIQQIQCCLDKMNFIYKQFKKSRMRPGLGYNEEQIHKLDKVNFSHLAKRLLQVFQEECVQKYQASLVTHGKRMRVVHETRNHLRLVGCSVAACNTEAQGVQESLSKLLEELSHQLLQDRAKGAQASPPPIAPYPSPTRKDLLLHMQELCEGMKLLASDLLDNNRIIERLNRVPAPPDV

[7] = molecular target: Dual specificity protein kinase CLK2 (Homo sapiens, UniProt P49760)
[8] = molecular target: Rho-associated protein kinase 1 (Homo sapiens, UniProt Q13464);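 note: measured within a broad kinome-wide panel profiling many kinases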
[9] = molecular target: Mitogen-activated protein kinase 8 (Homo sapiens, UniProt P45983);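 note: value comes from one member of a kinome-wide kinase profiling panel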
[10] = molecular target: Activated CDC42 kinase 1 (Homo sapiens, UniProt Q07912); test: Navigating the Kinome. Panel member name: ACK1
[11] = molecular target: High affinity nerve growth factor receptor (Homo sapiens, UniProt P04629);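 note: NTRK1 tested as one member of a kinome-wide profiling panel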
[12] = molecular target: Hepatocyte growth factor receptor (Homo sapiens, UniProt P08581);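 note: kinase panel profiling across the kinome, with MET as the panel member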
[13] = molecular target: Leukocyte tyrosine kinase receptor (Homo sapiens, UniProt P29376); test: Navigating the Kinome. Panel member name: LTK
[14] = molecular target: Dual specificity tyrosine-phosphorylation-regulated kinase 1B (Homo sapiens, UniProt Q9Y463); test: Navigating the Kinome. Panel member name: DYRK1B
[15] = molecular target: Cyclin-dependent kinase 9 (Homo sapiens, UniProt P50750);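 note: value from the CDK9 entry of a kinome-spanning kinase panel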
[16] = molecular target: Glycogen synthase kinase-3 beta (Homo sapiens, UniProt P49841);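 note: value comes from a broad kinome profiling panel, with GSK3B as the panel member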
[17] = molecular target: Cyclin-dependent kinase 5 (Homo sapiens, UniProt Q00535);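 note: CDK5 measured as one member of a kinase profiling panel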
[18] = molecular target: Glycogen synthase kinase-3 alpha (Homo sapiens, UniProt P49840);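 note: GSK3A result taken from a broad kinome-wide kinase panel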
[19] = molecular target: Insulin-like growth factor 1 receptor (Homo sapiens, UniProt P08069); test: Navigating the Kinome. Panel member name: IGF1R

Death-associated protein kinase 3, sequence (O43293 whole entry): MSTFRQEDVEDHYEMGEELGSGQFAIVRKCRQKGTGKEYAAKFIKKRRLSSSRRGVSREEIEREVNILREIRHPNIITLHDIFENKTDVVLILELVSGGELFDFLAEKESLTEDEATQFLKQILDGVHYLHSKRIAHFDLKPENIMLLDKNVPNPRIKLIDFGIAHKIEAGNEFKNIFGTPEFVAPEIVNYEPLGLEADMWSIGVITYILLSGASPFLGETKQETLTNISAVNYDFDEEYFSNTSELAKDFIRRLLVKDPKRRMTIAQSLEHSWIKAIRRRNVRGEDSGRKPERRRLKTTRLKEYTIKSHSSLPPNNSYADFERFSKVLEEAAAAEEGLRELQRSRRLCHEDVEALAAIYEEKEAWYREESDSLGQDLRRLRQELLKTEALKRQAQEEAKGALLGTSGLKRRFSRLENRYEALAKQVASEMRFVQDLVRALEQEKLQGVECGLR
Activated CDC42 kinase 1, sequence (Q07912 whole entry): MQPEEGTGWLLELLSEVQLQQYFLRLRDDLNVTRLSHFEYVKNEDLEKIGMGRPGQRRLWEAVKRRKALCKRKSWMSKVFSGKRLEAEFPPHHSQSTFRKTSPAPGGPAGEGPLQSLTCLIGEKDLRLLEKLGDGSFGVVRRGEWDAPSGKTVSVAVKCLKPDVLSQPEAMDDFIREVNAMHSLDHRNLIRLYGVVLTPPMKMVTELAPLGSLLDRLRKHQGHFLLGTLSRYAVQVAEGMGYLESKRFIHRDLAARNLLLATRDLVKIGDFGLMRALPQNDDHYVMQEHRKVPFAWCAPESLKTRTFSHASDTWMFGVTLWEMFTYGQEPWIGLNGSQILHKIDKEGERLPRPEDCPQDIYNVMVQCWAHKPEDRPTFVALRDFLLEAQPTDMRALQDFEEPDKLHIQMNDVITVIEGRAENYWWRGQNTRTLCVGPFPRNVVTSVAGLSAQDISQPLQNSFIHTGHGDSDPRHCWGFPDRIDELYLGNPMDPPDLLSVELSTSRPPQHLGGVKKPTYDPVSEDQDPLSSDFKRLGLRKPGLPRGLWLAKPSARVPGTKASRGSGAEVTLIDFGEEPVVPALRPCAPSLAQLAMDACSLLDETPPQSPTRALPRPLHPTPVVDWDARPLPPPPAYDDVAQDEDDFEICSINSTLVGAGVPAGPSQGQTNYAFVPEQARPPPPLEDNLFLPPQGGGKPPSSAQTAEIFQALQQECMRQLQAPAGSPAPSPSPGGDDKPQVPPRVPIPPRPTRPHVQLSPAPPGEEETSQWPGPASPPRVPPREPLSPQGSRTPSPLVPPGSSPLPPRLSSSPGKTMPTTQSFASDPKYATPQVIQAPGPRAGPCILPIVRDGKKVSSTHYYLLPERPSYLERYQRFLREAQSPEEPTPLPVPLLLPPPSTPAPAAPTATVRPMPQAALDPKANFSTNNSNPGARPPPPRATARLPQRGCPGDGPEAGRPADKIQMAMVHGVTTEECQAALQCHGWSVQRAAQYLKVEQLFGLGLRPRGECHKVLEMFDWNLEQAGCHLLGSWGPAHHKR
Cyclin-dependent kinase 9, sequence (P50750 whole entry): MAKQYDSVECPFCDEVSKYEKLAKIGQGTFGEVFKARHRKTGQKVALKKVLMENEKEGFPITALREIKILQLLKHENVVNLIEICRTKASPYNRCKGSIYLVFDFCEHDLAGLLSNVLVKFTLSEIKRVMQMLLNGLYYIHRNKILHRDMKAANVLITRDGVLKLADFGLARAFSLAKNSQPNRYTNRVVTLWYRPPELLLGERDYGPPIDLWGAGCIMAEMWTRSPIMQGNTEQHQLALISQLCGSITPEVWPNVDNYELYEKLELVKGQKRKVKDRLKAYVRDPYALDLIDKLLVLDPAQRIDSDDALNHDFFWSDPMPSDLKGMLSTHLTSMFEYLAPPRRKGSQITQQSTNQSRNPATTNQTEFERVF
Vascular endothelial growth factor receptor 2, sequence (P35968 whole entry): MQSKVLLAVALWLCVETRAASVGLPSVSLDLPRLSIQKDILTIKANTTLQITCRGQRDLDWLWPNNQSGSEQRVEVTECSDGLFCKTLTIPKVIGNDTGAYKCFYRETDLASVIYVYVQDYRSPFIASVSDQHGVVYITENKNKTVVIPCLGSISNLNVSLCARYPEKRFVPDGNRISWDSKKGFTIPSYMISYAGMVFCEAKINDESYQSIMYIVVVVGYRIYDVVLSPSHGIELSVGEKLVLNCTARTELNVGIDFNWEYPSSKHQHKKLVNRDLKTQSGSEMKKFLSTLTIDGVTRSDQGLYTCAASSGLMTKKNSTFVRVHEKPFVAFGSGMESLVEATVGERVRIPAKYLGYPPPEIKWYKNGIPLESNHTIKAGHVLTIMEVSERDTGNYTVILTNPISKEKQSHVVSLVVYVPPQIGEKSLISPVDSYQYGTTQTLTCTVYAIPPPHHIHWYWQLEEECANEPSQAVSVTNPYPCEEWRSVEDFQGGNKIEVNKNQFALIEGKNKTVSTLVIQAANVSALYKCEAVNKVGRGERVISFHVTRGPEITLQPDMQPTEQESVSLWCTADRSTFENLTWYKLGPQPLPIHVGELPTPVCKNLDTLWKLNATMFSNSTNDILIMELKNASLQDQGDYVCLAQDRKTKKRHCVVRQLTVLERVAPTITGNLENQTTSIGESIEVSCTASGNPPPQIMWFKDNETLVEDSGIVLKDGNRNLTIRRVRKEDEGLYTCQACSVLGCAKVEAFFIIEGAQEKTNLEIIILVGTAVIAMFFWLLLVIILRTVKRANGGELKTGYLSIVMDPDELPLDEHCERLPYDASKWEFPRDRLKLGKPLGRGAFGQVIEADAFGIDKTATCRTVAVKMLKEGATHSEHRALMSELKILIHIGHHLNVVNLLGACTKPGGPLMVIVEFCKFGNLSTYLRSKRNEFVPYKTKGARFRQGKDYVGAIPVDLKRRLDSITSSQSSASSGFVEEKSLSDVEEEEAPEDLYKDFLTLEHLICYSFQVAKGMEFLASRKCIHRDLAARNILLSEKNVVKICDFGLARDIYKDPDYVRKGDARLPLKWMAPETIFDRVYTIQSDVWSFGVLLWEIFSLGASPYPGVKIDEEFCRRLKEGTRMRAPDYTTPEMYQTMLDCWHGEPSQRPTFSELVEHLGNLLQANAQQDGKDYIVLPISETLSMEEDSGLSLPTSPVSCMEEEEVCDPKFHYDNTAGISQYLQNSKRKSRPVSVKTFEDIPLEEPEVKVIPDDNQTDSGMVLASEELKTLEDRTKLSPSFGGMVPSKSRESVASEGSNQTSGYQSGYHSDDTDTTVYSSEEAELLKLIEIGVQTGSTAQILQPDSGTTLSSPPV
Tyrosine-protein kinase JAK2, sequence (O60674 whole entry): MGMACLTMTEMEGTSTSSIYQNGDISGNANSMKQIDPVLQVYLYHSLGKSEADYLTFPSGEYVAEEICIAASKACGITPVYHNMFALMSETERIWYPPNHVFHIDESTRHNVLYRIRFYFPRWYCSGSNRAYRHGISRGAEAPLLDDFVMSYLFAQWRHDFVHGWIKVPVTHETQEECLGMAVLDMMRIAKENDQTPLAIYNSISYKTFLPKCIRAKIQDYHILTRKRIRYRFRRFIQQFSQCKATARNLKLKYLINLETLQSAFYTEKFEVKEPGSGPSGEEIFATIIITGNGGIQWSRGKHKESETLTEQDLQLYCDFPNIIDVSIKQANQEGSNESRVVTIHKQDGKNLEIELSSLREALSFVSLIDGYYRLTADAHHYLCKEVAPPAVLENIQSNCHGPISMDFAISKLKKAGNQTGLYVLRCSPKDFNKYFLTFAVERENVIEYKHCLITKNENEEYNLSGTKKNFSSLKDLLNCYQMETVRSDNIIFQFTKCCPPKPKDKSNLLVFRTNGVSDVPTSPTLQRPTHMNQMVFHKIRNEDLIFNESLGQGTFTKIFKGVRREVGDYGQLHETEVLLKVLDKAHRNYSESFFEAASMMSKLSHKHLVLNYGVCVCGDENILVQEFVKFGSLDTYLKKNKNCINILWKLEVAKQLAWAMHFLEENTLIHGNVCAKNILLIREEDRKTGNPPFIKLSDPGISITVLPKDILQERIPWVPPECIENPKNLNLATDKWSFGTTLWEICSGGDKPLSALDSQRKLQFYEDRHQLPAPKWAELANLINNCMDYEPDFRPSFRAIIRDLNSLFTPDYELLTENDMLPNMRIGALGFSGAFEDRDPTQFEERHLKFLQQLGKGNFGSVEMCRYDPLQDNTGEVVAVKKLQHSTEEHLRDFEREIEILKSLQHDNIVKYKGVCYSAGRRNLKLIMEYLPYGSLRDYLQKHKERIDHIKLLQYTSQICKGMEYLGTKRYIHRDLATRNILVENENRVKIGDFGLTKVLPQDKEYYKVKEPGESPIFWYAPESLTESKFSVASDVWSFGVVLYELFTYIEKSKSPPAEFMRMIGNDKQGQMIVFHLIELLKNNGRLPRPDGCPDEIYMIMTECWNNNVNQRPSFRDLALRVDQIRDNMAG
Glycogen synthase kinase-3 beta, sequence (P49841 whole entry): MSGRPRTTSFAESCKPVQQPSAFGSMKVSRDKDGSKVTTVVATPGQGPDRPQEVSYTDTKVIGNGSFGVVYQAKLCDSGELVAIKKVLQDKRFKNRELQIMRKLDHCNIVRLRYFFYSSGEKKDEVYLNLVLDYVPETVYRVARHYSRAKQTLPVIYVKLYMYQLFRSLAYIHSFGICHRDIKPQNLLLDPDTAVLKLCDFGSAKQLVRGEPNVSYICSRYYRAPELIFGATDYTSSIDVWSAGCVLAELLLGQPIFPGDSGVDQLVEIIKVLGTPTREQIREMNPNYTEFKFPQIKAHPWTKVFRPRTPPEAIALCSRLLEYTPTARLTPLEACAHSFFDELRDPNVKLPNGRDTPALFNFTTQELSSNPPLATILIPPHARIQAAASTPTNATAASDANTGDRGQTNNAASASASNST
Cyclin-dependent kinase 5, sequence (Q00535 whole entry): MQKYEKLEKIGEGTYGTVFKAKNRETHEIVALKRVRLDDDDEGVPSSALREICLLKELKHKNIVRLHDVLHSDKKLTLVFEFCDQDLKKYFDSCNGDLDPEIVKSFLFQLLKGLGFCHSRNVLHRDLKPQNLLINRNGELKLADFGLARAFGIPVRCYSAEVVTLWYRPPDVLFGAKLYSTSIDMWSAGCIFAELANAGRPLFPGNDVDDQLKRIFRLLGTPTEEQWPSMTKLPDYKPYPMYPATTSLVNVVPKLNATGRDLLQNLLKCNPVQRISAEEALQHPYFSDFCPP

Row | SMILES | Ki [1] | Ki [2] | Ki [3] | Ki [4] | Ki [5] | Ki [6] | Ki [7] | Ki [8] | Ki [9] | Ki [10] | Ki [11] | Ki [12] | Ki [13] | Ki [14] | Ki [15] | Ki [16] | Ki [17] | Ki [18] | Ki [19]
1 | COc1cccc(C(C)NC(=O)c2sc(-c3ccncc3)nc2C)c1 (configuration not stated) | > 3980 nM (inactive) | > 2510 nM (inactive) | > 5010 nM (inactive) | > 2510 nM (inactive) | > 2510 nM (inactive) | > 3160 nM (inactive) | > 3980 nM (inactive) | 31.6 nM (active) | > 5010 nM (inactive) | > 3980 nM (inactive) | > 3160 nM (inactive) | > 2510 nM (inactive) | > 2510 nM (inactive) | > 2510 nM (inactive) | > 1580 nM (inactive) | > 3980 nM (inactive) | > 3160 nM (inactive) | > 3980 nM (inactive) | > 2510 nM (inactive)
2 | CCCCC(=O)Nc1cc(-c2c[nH]c3ncccc23)cc(Cl)n1 | > 3980 nM (inactive) | > 2510 nM (inactive) | > 3160 nM (inactive) | > 2510 nM (inactive) | > 2510 nM (inactive) | > 3160 nM (inactive) | 1580 nM (active) | > 31.6 nM (inactive) | > 5010 nM (inactive) | > 3980 nM (inactive) | > 3160 nM (inactive) | > 2510 nM (inactive) | > 2510 nM (inactive) | 39.8 nM (active) | > 1580 nM (inactive) | > 3980 nM (inactive) | 1000 nM (active) | > 3980 nM (inactive) | > 2510 nM (inactive)
3 | Oc1ccc(-c2nc(-c3ccncc3)c(-c3ccc(F)cc3)[nH]2)cc1 [SB-202190] | > 3160 nM (inactive) | > 2510 nM (inactive) | > 5010 nM (inactive) | > 2000 nM (inactive) | > 2510 nM (inactive) | > 3160 nM (inactive) | > 3980 nM (inactive) | > 3980 nM (inactive) | 501 nM (active) | > 3980 nM (inactive) | > 3160 nM (inactive) | > 2510 nM (inactive) | > 1580 nM (inactive) | > 2510 nM (inactive) | > 1580 nM (inactive) | > 2510 nM (inactive) | > 3160 nM (inactive) | > 3980 nM (inactive) | 1260 nM (active)
